Drawing on patent publication US20260184663A1, “INDENE COMPOUNDS, PHARMACEUTICAL COMPOSITIONS THEREOF, AND THEIR THERAPEUTIC APPLICATIONS” (NucMito Pharmaceuticals co. Ltd., priority 2022, published 2026), this text covers inhibition for 8 molecules.

Holding throughout (format): cell-based
Test [1] concerns A549 (lung adenocarcinoma). Nature of the test: Antiproliferative activity (CCK-8 cell viability), A549. Conditions: Homo sapiens, 72 h, read-out: Antiproliferative activity in cancerous cells, A549 (inhibition of cell growth); for inhibition at 3.3 µM: Compound concentration: 3.3 μM; for inhibition at 10 µM: Compound concentration: 10 μM. In a few lines:
(§1)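 Cells grown in DMEM (HepG2, SW480), MEM (HeLa) or F-12K (A549), each with 10% FBS, then exposed to compound at 3.3, 10 or 30 μM for 72 h at 37 °C. CCK-8 absorbance at 450 nm; viability expressed as percent of DMSO-treated cells, graded as growth inhibition bands.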

The subject of the next test is SW480 (colon cancer). As to the kind of experiment: Antiproliferative activity (CCK-8 cell viability), SW480. Conditions: Homo sapiens, 72 h; for inhibition at 3.3 µM: Compound concentration: 3.3 μM; for inhibition at 3.3 µM / inhibition at 10 µM: read-out: Antiproliferative activity in cancerous cells, SW480 (inhibition of cell growth); for inhibition at 10 µM: Compound concentration: 10 μM. In a few lines: as §1

Test [2] concerns B16F10 (malignant melanoma). Nature of the test: Antiproliferative activity (CCK-8 cell viability), B16F10. Conditions: Mus musculus, 72 h, read-out: Antiproliferative activity in cancerous cells, B16F10 (inhibition of cell growth); for inhibition at 3.3 µM: B16-F10, Compound concentration: 3.3 μM; for inhibition at 10 µM: B16-F10, Compound concentration: 10 μM. In a few lines: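 B16F10 melanoma cells grown in DMEM with 10% FBS were plated in 96-well plates at 2,000-5,000 cells/well. After attachment they were exposed to compound in medium for 72 h at 37° C. CCK-8 solution (10 μL) was then added, and after 4 h at 37° C absorbance was read at 450 nm.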

Test [3] has as its system MDA-MB-231 (breast cancer). As to the kind of experiment: Antiproliferative activity (CCK-8 cell viability), MDA-MB-231. Conditions: Homo sapiens, 72 h, read-out: Antiproliferative activity in cancerous cells, MDA-MB-231 (inhibition of cell growth); for inhibition at 3.3 µM: Compound concentration: 3.3 μM; for inhibition at 10 µM: Compound concentration: 10 μM. In outline: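 MDA-MB-231 breast cancer cells, grown in DMEM with 10% FBS, were plated in 96-well plates at 2,000-5,000 cells/well. Once attached, they were exposed to compound and incubated at 37° C. for 72 h. Viability was then measured with CCK-8 (10 μL per well, 4 h at 37° C.) by absorbance at 450 nm, relative to DMSO vehicle wells.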

For test [4], the system named is A431 (epidermoid carcinoma). Nature of the test: Antiproliferative activity (CCK-8 cell viability), A431. Conditions: Homo sapiens, 72 h, read-out: Antiproliferative activity in cancerous cells, A431 (inhibition of cell growth); for inhibition at 3.3 µM: A-431, Compound concentration: 3.3 μM; for inhibition at 10 µM: A-431, Compound concentration: 10 μM. In outline: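 A431 epidermoid carcinoma cells grown in DMEM with 10% FBS were plated at 2,000-5,000 cells/well in 96-well plates. After attachment they were exposed to compound at 3.3 μM, 10 μM, or 30 μM for 72 h at 37° C. Viability was then assessed by CCK-8 against DMSO vehicle-treated wells.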

For a further test, the system named is HeLa (cervical cancer). Nature of the test: Antiproliferative activity (CCK-8 cell viability), HeLa. Conditions: Homo sapiens, 72 h, read-out: Antiproliferative activity in cancerous cells, HELA (inhibition of cell growth); for inhibition at 3.3 µM: Compound concentration: 3.3 μM; for inhibition at 10 µM: Compound concentration: 10 μM. In a few lines:
as §1

The next test concerns HepG2 (liver cancer). Nature of the test: Antiproliferative activity (CCK-8 cell viability), HepG2. The conditions noted are these: Homo sapiens, 72 h, read-out: Antiproliferative activity in cancerous cells, HepG2 (inhibition of cell growth); for inhibition at 3.3 µM: Compound concentration: 3.3 μM; for inhibition at 10 µM: Compound concentration: 10 μM. In a few lines: as §1

Structures are written as SMILES. A value given as a limit tells only on which side of the number the result lay.

As for `CCc1ccc2c(c1)C(CC(=O)O)=C(C)/C2=C/c1ccc(COc2ccc(C(F)(F)F)cc2)cc1` [B60, (Z)-2-(5-Ethyl-2-methyl-1-(4-((4-(trifluoromethyl)phenoxy)methyl)benzylidene)-1H-inden-3-yl)acetic acid], the inhibition at 3.3 µM in test [1] was 30 to 50%; in the test on SW480 (colon cancer) it was below 30%; in test [2], 30 to 50%; in test [3], below 30%; in test [4] it was at least 50%; with HeLa (cervical cancer), 30 to 50%. In addition, in the test on HepG2 (liver cancer), the inhibition at 3.3 µM is at least 50%. For the same molecule, the inhibition at 10 µM in test [1] was at least 50%; with SW480 (colon cancer) it was at least 50%; in test [2], at least 50%; in test [3] it was below 30%; in test [4], at least 50%; with HeLa (cervical cancer), at least 50%. Besides, in the test with HepG2 (liver cancer), the inhibition at 10 µM is at least 50%.

On to `CC1=C(CC(=O)O)c2cc(F)ccc2/C1=C\c1cccc(C(=O)Nc2ccc(F)cc2)c1` [B69, (Z)-2-(5-Fluoro-1-(3-((4-fluorophenyl)carbamoyl)benzylidene)-2-methyl-1H-inden-3-yl)acetic acid], for which the inhibition at 3.3 µM is below 30% in test [1]; 30 to 50% in the test on SW480 (colon cancer); at least 50% in test [2]; 30 to 50% in test [3]; below 30% in test [4]; at least 50% with HeLa (cervical cancer). For the same molecule, the inhibition at 3.3 µM in the test with HepG2 (liver cancer) was 30 to 50%. Also, the inhibition at 10 µM (in test [1]; in the test with SW480 (colon cancer); in test [2]; in test [3]; in test [4]; with HeLa (cervical cancer)) was at least 50% throughout. Further, in the test on HepG2 (liver cancer), the inhibition at 10 µM is at least 50%.

As to `CC1=C(CC(=O)O)c2cc(F)ccc2/C1=C\c1ccc(OCc2cc3ccccc3s2)cc1` [B70, (Z)-2-(1-(4-(Benzo[b]thiophen-2-ylmethoxy)benzylidene)-5-fluoro-2-methyl-1H-inden-3-yl)acetic acid], the inhibition at 3.3 µM in test [1] is at least 50%; with SW480 (colon cancer), 30 to 50%; in test [2], at least 50%; in test [3] it was 30 to 50%; in test [4], 30 to 50%; with HeLa (cervical cancer), at least 50%. Besides, the inhibition at 3.3 µM in the test on HepG2 (liver cancer) is at least 50%. In addition, the inhibition at 10 µM in test [1] was at least 50%; with SW480 (colon cancer), at least 50%; in test [2], at least 50%; in test [3], at least 50%; in test [4], 30 to 50%; in the test on HeLa (cervical cancer) it was at least 50%. In the test on HepG2 (liver cancer), the inhibition at 10 µM was at least 50%.

Turning to `CCc1ccc2c(c1)C(CC(=O)O)=C(C)/C2=C/c1cccc(COc2ccc(F)cc2)c1` [B71, (Z)-2-(5-Ethyl-1-(3-((4-fluorophenoxy)methyl)benzylidene)-2-methyl-1H-inden-3-yl)acetic acid], the inhibition at 3.3 µM in test [1] is 30 to 50%; in the test on SW480 (colon cancer) it was below 30%; in test [2], below 30%; in test [3], below 30%; in test [4] it was at least 50%; in the test with HeLa (cervical cancer), below 30%. Moreover, the inhibition at 3.3 µM with HepG2 (liver cancer) is below 30%. For the same molecule, the inhibition at 10 µM was at least 50% in test [1]; below 30% with SW480 (colon cancer); at least 50% in test [2]; at least 50% in test [3]; at least 50% in test [4]; at least 50% with HeLa (cervical cancer). The inhibition at 10 µM with HepG2 (liver cancer) was below 30%.

Consider `CC1=C(CC(=O)O)c2cc(F)ccc2/C1=C\c1ccc(COc2ccc(Cl)cc2)cc1Br` [B72, (Z)-2-(1-(2-Bromo-4-((4-chlorophenoxy)methyl)benzylidene)-5-fluoro-2-methyl-1H-inden-3-yl)acetic acid], for which the inhibition at 3.3 µM in test [1] was at least 50%; in the test with SW480 (colon cancer) it was 30 to 50%; in test [2], at least 50%; in test [3] it was 30 to 50%; in test [4] it was at least 50%; with HeLa (cervical cancer), at least 50%. For the same molecule, in the test with HepG2 (liver cancer), the inhibition at 3.3 µM was at least 50%. Further, the inhibition at 10 µM in test [1] is at least 50%; in the test on SW480 (colon cancer), 30 to 50%; in test [2] it was at least 50%; in test [3], 30 to 50%; in test [4], at least 50%; with HeLa (cervical cancer) it was at least 50%. Also, in the test on HepG2 (liver cancer), the inhibition at 10 µM is at least 50%. Further, the inhibition at 30 µM in the test with SW480 (colon cancer) (Compound concentration: 30 μM, read-out: Antiproliferative activity in cancerous cells, SW480) lay in the range of 30 to 50%.

Turning to `CC1=C(CC(=O)O)c2cc(F)ccc2/C1=C\c1ccc(COc2ccc(Cl)cc2)cc1C` [B73, (Z)-2-(1-(4-((4-Chlorophenoxy)methyl)-2-methylbenzylidene)-5-fluoro-2-methyl-1H-inden-3-yl)acetic acid], the inhibition at 3.3 µM was below 30% in test [1]; 30 to 50% with SW480 (colon cancer); 30 to 50% in test [2]; below 30% in test [3]; at least 50% in test [4]; 30 to 50% with HeLa (cervical cancer). Further, the inhibition at 3.3 µM in the test on HepG2 (liver cancer) was below 30%. Besides, the inhibition at 10 µM in test [1] was at least 50%; in the test with SW480 (colon cancer), at least 50%; in test [2] it was 30 to 50%; in test [3], below 30%; in test [4], at least 50%; in the test on HeLa (cervical cancer), at least 50%. Also, in the test on HepG2 (liver cancer), the inhibition at 10 µM is at least 50%.

Turning to `CC1=C(CC(=O)O)c2cc(F)ccc2/C1=C\c1ccc(COc2ccc(F)cc2)cc1Br` [B74, (Z)-2-(1-(2-Bromo-4-((4-fluorophenoxy)methyl)benzylidene)-5-fluoro-2-methyl-1H-inden-3-yl)acetic acid], the inhibition at 3.3 µM in test [1] is 30 to 50%; in the test on SW480 (colon cancer), below 30%; in test [2] it was 30 to 50%; in test [3], below 30%; in test [4], below 30%; in the test on HeLa (cervical cancer), below 30%. The inhibition at 3.3 µM with HepG2 (liver cancer) is at least 50%. The inhibition at 10 µM in test [1] is 30 to 50%; in the test on SW480 (colon cancer) it was below 30%; in test [2], at least 50%; in test [3], 30 to 50%; in test [4], 30 to 50%; with HeLa (cervical cancer), at least 50%. The inhibition at 10 µM in the test on HepG2 (liver cancer) is at least 50%.

`CC1=C(CC(=O)O)c2cc(F)ccc2/C1=C\c1ccc(COCc2ccc(F)cc2)cc1` [B101, (Z)-2-(5-Fluoro-1-(4-(((4-fluorobenzyl)oxy)methyl)benzylidene)-2-methyl-1H-inden-3-yl)acetic acid]: the inhibition at 3.3 µM was 30 to 50% in test [1]; below 30% in the test on SW480 (colon cancer); below 30% in test [2]; at least 50% in test [3]; below 30% in test [4]; below 30% in the test with HeLa (cervical cancer). The inhibition at 3.3 µM in the test with HepG2 (liver cancer) fell in the range of 30 to 50%. In addition, the inhibition at 10 µM in test [1] was at least 50%; in the test on SW480 (colon cancer) it was at least 50%; in test [2], at least 50%; in test [3] it was at least 50%; in test [4] it was 30 to 50%; in the test with HeLa (cervical cancer) it was at least 50%. Moreover, the inhibition at 10 µM in the test with HepG2 (liver cancer) is at least 50%.
